# Peptide text beside a SMILES is read from it.
# Experiments:
# FPR1 = target: T1, FPR1 (Homo sapiens, UniProt P21462); test: Change in calcium activity by peptide, FPR1 activation effect; assay type: cell-based; details: calcium activity (Fura-2), graded per Table 3, read-out: EC50 for [Ca^2+] FPR1
# T1 sequence (P21462 1-350): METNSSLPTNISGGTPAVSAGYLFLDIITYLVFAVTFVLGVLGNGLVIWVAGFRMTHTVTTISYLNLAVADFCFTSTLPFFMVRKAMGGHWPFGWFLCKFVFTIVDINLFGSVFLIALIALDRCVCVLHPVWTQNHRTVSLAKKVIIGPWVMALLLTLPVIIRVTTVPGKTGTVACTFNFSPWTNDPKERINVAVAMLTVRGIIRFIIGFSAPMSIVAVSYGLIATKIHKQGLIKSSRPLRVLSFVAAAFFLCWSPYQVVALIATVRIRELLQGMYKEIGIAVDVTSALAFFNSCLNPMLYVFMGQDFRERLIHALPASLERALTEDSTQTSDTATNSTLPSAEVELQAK
# Outline: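 Calcium flux induced by peptide addition was monitored on a FlexStation 3 plate reader. Before this, cells seeded a day earlier (3×10^5/well) took up the Fura-2 dye for 1 h at 37 °C plus 30 min dark at room temperature.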
# FPR2 = target: T2, FPR2 (Homo sapiens, UniProt P25090); test: Change in calcium activity by peptide (Fura-2) in RBL cells overexpressing FPR2; assay type: cell-based; details: calcium activity (Fura-2), graded per Table 3, read-out: EC50 for [Ca^2+] FPR2
# T2 construct: expressed in transfected cells; host or cells: RBL cells (RBL-FPR2)
# T2 sequence (P25090 1-351): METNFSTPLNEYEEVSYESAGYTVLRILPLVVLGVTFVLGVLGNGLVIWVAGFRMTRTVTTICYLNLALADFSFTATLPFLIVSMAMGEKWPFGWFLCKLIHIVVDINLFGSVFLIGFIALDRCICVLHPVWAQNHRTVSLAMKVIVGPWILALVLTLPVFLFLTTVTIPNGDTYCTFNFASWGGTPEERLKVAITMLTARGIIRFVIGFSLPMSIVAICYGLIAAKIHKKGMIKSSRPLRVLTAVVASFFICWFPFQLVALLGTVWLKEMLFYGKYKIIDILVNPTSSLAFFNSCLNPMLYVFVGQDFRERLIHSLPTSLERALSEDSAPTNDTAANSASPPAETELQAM
# Outline: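 Peptide-induced intracellular calcium change measured by Fura-2 fluorescence on a plate reader. Cells: RBL line overexpressing FPR2, dye-loaded 1 h at 37 °C then 30 min at RT in dark; peptides from 0.5 mM water/50% DMSO stocks, diluted in HBSS with 20 mM HEPES.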
EC50 (FPR1) [nM],EC50 (FPR2) [nM],Structure (SMILES)
1000 to 10000,< 10,CCCC(=O)N[C@@H](Cc1c[nH]cn1)C(=O)N[C@@H](CCCCN)C(=O)N[C@@H](Cc1ccc(O)cc1)C(=O)N[C@@H](Cc1c[nH]c2ccccc12)C(=O)N1CCC[C@H]1C(=O)N[C@H](CCSC)C(N)=O [Peptide 151] (HELM PEPTIDE1{[CCCC(=O)[*:2]].H.K.Y.W.P.[dM].[am]}$$$$V2.0)
> 10000,< 10,CCCC(=O)N[C@@H](Cc1c[nH]cn1)C(=O)N[C@@H](CCSC)C(=O)N[C@@H](CCCCN)C(=O)N[C@@H](Cc1ccc(O)cc1)C(=O)N[C@@H](Cc1ccc(O)cc1)C(=O)N[C@@H](Cc1ccc(O)cc1)C(=O)N[C@H](CCSC)C(N)=O [Peptide 127] (HELM PEPTIDE1{[CCCC(=O)[*:2]].H.M.K.Y.Y.Y.[dM].[am]}$$$$V2.0)
1000 to 10000,< 10,CCCCCCCC(=O)N[C@H](C(=O)N[C@@H](CCCCN)C(=O)N[C@@H](Cc1ccc(O)cc1)C(=O)N[C@@H](CCCCN)C(=O)N[C@H](C(=O)N[C@H](CCSC)C(N)=O)C(C)C)[C@@H](C)CC [Peptide 137] (HELM PEPTIDE1{[CCCCCCCC(=O)[*:2]].I.K.Y.K.V.[dM].[am]}$$$$V2.0)
> 10000,< 10,CCCCCCCC(=O)N1CCC[C@H]1C(=O)N[C@@H](CCCCN)C(=O)N[C@@H](Cc1ccc(O)cc1)C(=O)N[C@@H](CCCCN)C(=O)N[C@H](C(=O)N[C@H](CCSC)C(N)=O)C(C)C [Peptide 141] (HELM PEPTIDE1{[CCCCCCCC(=O)[*:2]].P.K.Y.K.V.[dM].[am]}$$$$V2.0)
> 10000,< 10,CCCC(=O)N[C@@H](Cc1c[nH]cn1)C(=O)N[C@@H](CCCCN)C(=O)N[C@@H](Cc1ccc(O)cc1)C(=O)N[C@@H](CCCCN)C(=O)N1CCC[C@H]1C(=O)N[C@H](CCSC)C(N)=O [Peptide 148] (HELM PEPTIDE1{[CCCC(=O)[*:2]].H.K.Y.K.P.[dM].[am]}$$$$V2.0)
1000 to 10000,< 10,CSCC[C@@H](NC(=O)[C@@H]1CCCN1C(=O)[C@H](Cc1c[nH]c2ccccc12)NC(=O)[C@H](Cc1ccc(O)cc1)NC(=O)[C@H](CCCCN)NC(=O)[C@H](Cc1c[nH]cn1)NC(C)=O)C(N)=O [Peptide 150] (HELM PEPTIDE1{[ac].H.K.Y.W.P.[dM].[am]}$$$$V2.0)
1000 to 10000,11 to 100,CSCC[C@@H](NC(=O)[C@@H](NC(=O)[C@H](Cc1ccccc1)NC(=O)[C@H](Cc1ccc(O)cc1)NC(=O)[C@H](CCCNC(=N)N)NC(=O)[C@H](Cc1c[nH]c2ccccc12)NC(=O)[C@@H](N)CCCNC(=N)N)C(C)C)C(N)=O [Peptide 160] (HELM PEPTIDE1{R.W.R.Y.F.V.[dM].[am]}$$$$V2.0)
1000 to 10000,11 to 100,CSCC[C@@H](NC(=O)[C@@H](NC(=O)[C@H](CC(C)C)NC(=O)[C@H](Cc1ccc(O)cc1)NC(=O)[C@H](CCCNC(=N)N)NC(=O)[C@H](Cc1c[nH]c2ccccc12)NC(=O)[C@@H](N)CCCNC(=N)N)C(C)C)C(N)=O [Peptide 158] (HELM PEPTIDE1{R.W.R.Y.L.V.[dM].[am]}$$$$V2.0)
> 10000,11 to 100,CC[C@H](C)[C@H](N)C(=O)N[C@@H](CCCCN)C(=O)N[C@@H](Cc1ccccc1)C(=O)N[C@@H](CCCCN)C(=O)N[C@H](C(=O)N[C@H](CCSC)C(N)=O)C(C)C [Peptide 132] (HELM PEPTIDE1{I.K.F.K.V.[dM].[am]}$$$$V2.0)

# The remaining lines, values behind:
Structure (SMILES),EC50 (FPR1) [nM],EC50 (FPR2) [nM]
CSCC[C@H](N)C(=O)N[C@@H](CCCCN)C(=O)N[C@@H](Cc1ccc(O)cc1)C(=O)N[C@@H](Cc1c[nH]c2ccccc12)C(=O)N[C@@H](Cc1ccc(O)cc1)C(=O)N[C@H](CCSC)C(N)=O [Peptide 89] (HELM PEPTIDE1{M.K.Y.W.Y.[dM].[am]}$$$$V2.0),> 10000,< 10
CCCCCCCC(=O)N[C@@H](CCSC)C(=O)N[C@@H](CCCNC(=N)N)C(=O)N[C@@H](Cc1ccc(O)cc1)C(=O)N[C@@H](Cc1c[nH]c2ccccc12)C(=O)N[C@@H](Cc1ccc(O)cc1)C(=O)N[C@H](CCSC)C(N)=O [Peptide 88] (HELM PEPTIDE1{[CCCCCCCC(=O)[*:2]].M.R.Y.W.Y.[dM].[am]}$$$$V2.0),> 10000,11 to 100
CSCC[C@@H](NC(=O)[C@@H](NC(=O)[C@H](CCCNC(=N)N)NC(=O)[C@H](Cc1ccc(O)cc1)NC(=O)[C@H](CCCNC(=N)N)NC(=O)[C@H](Cc1c[nH]c2ccccc12)NC(=O)[C@@H](N)CCCNC(=N)N)C(C)C)C(N)=O [Peptide 29] (HELM PEPTIDE1{R.W.R.Y.R.V.[dM].[am]}$$$$V2.0),> 10000,< 10
CCCC(=O)N[C@@H](CCSC)C(=O)N[C@@H](CCCNC(=N)N)C(=O)N[C@@H](Cc1ccc(O)cc1)C(=O)N[C@@H](CCCCN)C(=O)N[C@H](C(=O)N[C@H](CCSC)C(N)=O)C(C)C [Peptide 15] (HELM PEPTIDE1{[CCCC(=O)[*:2]].M.R.Y.K.V.[dM].[am]}$$$$V2.0),> 10000,< 10
CSCC[C@H](NC(=O)[C@@H](N)Cc1c[nH]cn1)C(=O)N[C@@H](CCCNC(=N)N)C(=O)N[C@@H](Cc1ccc(O)cc1)C(=O)N[C@@H](CCCNC(=N)N)C(=O)N[C@H](C(=O)N[C@H](CCSC)C(N)=O)C(C)C [Peptide 31] (HELM PEPTIDE1{H.M.R.Y.R.V.[dM].[am]}$$$$V2.0),1000 to 10000,< 10
CCCCCCCC(=O)N[C@@H](CCCNC(=N)N)C(=O)N[C@@H](CCSC)C(=O)N[C@@H](CCCNC(=N)N)C(=O)N[C@@H](Cc1ccc(O)cc1)C(=O)N[C@@H](Cc1ccc(O)cc1)C(=O)N[C@H](C(=O)N[C@H](CCSC)C(N)=O)C(C)C [Peptide 99] (HELM PEPTIDE1{[CCCCCCCC(=O)[*:2]].R.M.R.Y.Y.V.[dM].[am]}$$$$V2.0),1000 to 10000,11 to 100
CCCCCCCC(=O)N[C@@H](Cc1c[nH]cn1)C(=O)N[C@@H](CCSC)C(=O)N[C@@H](CCCCN)C(=O)N[C@@H](Cc1ccc(O)cc1)C(=O)N[C@@H](CCCCN)C(=O)N[C@H](C(=O)N[C@H](CCSC)C(N)=O)C(C)C [Peptide 24] (HELM PEPTIDE1{[CCCCCCCC(=O)[*:2]].H.M.K.Y.K.V.[dM].[am]}$$$$V2.0),> 10000,< 10
CSCC[C@@H](NC(=O)[C@H](Cc1ccc(O)cc1)NC(=O)[C@H](Cc1ccc(O)cc1)NC(=O)[C@H](Cc1ccc(O)cc1)NC(=O)[C@H](CCCNC(=N)N)NC(=O)[C@H](Cc1c[nH]c2ccccc12)NC(C)=O)C(N)=O [Peptide 124] (HELM PEPTIDE1{[ac].W.R.Y.Y.Y.[dM].[am]}$$$$V2.0),1000 to 10000,11 to 100
CSCC[C@H](NC(C)=O)C(=O)N[C@@H](CCCNC(=N)N)C(=O)N[C@@H](Cc1ccc(O)cc1)C(=O)N[C@@H](Cc1c[nH]c2ccccc12)C(=O)N[C@H](C(=O)N[C@H](CCSC)C(N)=O)C(C)C [Peptide 105] (HELM PEPTIDE1{[ac].M.R.Y.W.V.[dM].[am]}$$$$V2.0),101 to 1000,< 10
CSCC[C@H](NC(=O)[C@@H](N)Cc1c[nH]cn1)C(=O)N[C@@H](CCCNC(=N)N)C(=O)N[C@@H](Cc1ccc(O)cc1)C(=O)N[C@@H](CCCCN)C(=O)N1CCC[C@H]1C(=O)N[C@H](CCSC)C(N)=O [Peptide 58] (HELM PEPTIDE1{H.M.R.Y.K.P.[dM].[am]}$$$$V2.0),> 10000,< 10
CSCC[C@H](N)C(=O)N[C@@H](CCCNC(=N)N)C(=O)N[C@@H](Cc1ccc(O)cc1)C(=O)N[C@@H](Cc1c[nH]c2ccccc12)C(=O)N[C@@H](Cc1ccc(O)cc1)C(=O)N[C@H](CCSC)C(N)=O [Peptide 85] (HELM PEPTIDE1{M.R.Y.W.Y.[dM].[am]}$$$$V2.0),> 10000,< 10
CSCC[C@@H](NC(=O)[C@@H](NC(=O)[C@H](Cc1c[nH]c2ccccc12)NC(=O)[C@H](Cc1ccc(O)cc1)NC(=O)[C@H](CCCNC(=N)N)NC(=O)[C@H](Cc1c[nH]c2ccccc12)NC(C)=O)C(C)C)C(N)=O [Peptide 102] (HELM PEPTIDE1{[ac].W.R.Y.W.V.[dM].[am]}$$$$V2.0),101 to 1000,< 10
CSCC[C@@H](NC(=O)[C@@H]1CCCN1C(=O)[C@H](Cc1ccc(O)cc1)NC(=O)[C@H](Cc1ccc(O)cc1)NC(=O)[C@H](CCCNC(=N)N)NC(=O)[C@H](Cc1c[nH]c2ccccc12)NC(=O)[C@H](CCCNC(=N)N)NC(C)=O)C(N)=O [Peptide 121] (HELM PEPTIDE1{[ac].R.W.R.Y.Y.P.[dM].[am]}$$$$V2.0),101 to 1000,< 10
CCCC(=O)N[C@@H](CCSC)C(=O)N[C@@H](CCCNC(=N)N)C(=O)N[C@@H](Cc1ccc(O)cc1)C(=O)N[C@@H](CCCCN)C(=O)N1CCC[C@H]1C(=O)N[C@H](CCSC)C(N)=O [Peptide 56] (HELM PEPTIDE1{[CCCC(=O)[*:2]].M.R.Y.K.P.[dM].[am]}$$$$V2.0),> 10000,< 10

# Source: patent US20250361268A1, “NOVEL ANTI-INFLAMMATORY PEPTIDE AND USE THEREOF” (NOVACELL TECHNOLOGY INC., priority 2022, published 2025)
